Test results as given in patent publication US7078499B2, “Nucleotide analogues comprising a reporter moiety and a polymerase enzyme blocking moiety” (GE Healthcare UK Limited, priority 2000, dated 2006).

What was measured:
Type in all cases: biochemical
Thermosequenase [1] = experiment: Thermostable DNA polymerase primer extension, TS; parameters: key to result of incorporation (termination / further chain extension): T: Incorporation results in termination; E: Incorporation permits further chain extension; T/E: Predominant product is primer extended by one base, but evidence of some further extension also observed; conditions: DNA template, 45° C. for 20–40 minutes; for primer extended by at least one base within assay time (grade): TTP replaced entirely by test compound
Protocol: (§1) DNA polymerase assays were performed using Sequence 1 as primer and Sequence 2 as template. • Sequence 1 5′[Cy3]TAACTCATTAACAGGATC 3′ • Sequence 2 5′AT TCGCGGTATTCTGGTATGAAGCTTTTAGATCCTGTTAATGAGTTA GTA3′
(§2) The template (Sequence 2) was designed such that the base (underlined) immediately adjacent to the 3′ end of the hybridised primer is complementary to the nucleotide test compound. Nucleotide test compounds were compounds (6) (4′-C-(glycylaminomethyl)thymidine triphosphate), (8) (4′-C-(N-trifluoroacetyaminomethyl)thymidine triphosphate) and (9) (4′-C-(aminomethyl)thymidine triphosphate) as described above.
(§3) Primer extension reactions were performed using the above primers in the presence of 40 to 80 μM of nucleotide triphosphates. Positive control reactions contained all four native nucleotide triphosphates. For the other reactions the TTP was replaced with either a 2:1 ratio of […] for the terminator control, or entirely by the test compound The enzymes were used at a final concentration of 0.175 units/μl and a magnesium ion concentration of 2.5 mM in buffers supplied by the manufacturer. The primer and template concentrations were 0.5 pmol/μl and 2 pmol/μl respectively.
(§4) Extension reactions with thermophilic enzymes were performed by initially denaturing the fully assembled reactions at 70° C. for 5 min. followed by 45° C. for 20–40 minutes. The following enzymes were used: Taq DNA polymerase (Taq); Thermosequenase (TS); Thermosequenase II (TSII); Thermosequenase E (TSE), Tfl DNA polymerase (Tfl); Tth DNA polymerase (Tth), deltaTts DNA polymerase (deltaTts), deltaTts D DNA polymerase (dettaTTSD) (all from APBiotech); Pfu DNA polymerase (Pfu) (Stratagene Ltd); Vent™ DNA polymerase (Vent) (New England Biolabs).
(§5) The reactions were stopped by adding a 0.5 volume aliquot of 80% formamide containing 0.1% (w/v) bromophenol blue and 0.1% (w/v) cresol blue. The reaction products were separated by denaturing gel electrophoresis at a constant power of 45 W on 16% polyacrylamide gels containing 50% urea.
(§6) Gels were scanned for Cy3 fluorescence on a Molecular Dynamics Fluorimager and the data analysed using Molecular Dynamics ImageQuant 5 software.
(§7) The incorporation of a test nucleotide triphosphate results in the appearance on a polyacrylamide gel of a single band corresponding to a single base extension product. If, however, the enzyme adds additional bases then further bands would be observed that corresponded to either the full-length product or positions of other complementary bases in the template.

Vent™ DNA polymerase = experiment: Thermostable DNA polymerase primer extension, Vent; parameters: key to result of incorporation (termination / further chain extension): T: Incorporation results in termination; E: Incorporation permits further chain extension; T/E: Predominant product is primer extended by one base, but evidence of some further extension also observed; conditions: DNA template, 45° C. for 20–40 minutes; for primer extended by at least one base within assay time (grade): TTP replaced entirely by test compound
Protocol: as §1, §2, §3, §4, §5, §6, §7

phi-29 DNA polymerase = target: T1, phi-29 DNA polymerase (Bacillus phage phi29, UniProt P03680); experiment: Mesophilic DNA polymerase primer extension, phi-29; parameters: key to result of incorporation (termination / further chain extension): T: Incorporation results in termination; E: Incorporation permits further chain extension; T/E: Predominant product is primer extended by one base, but evidence of some further extension also observed; conditions: DNA template, 37° C. for 20–40 minutes; for primer extended by at least one base within assay time (grade): TTP replaced entirely by test compound
T1 construct: purchased AP Biotech
Protocol: as §1, §2, §3
(§8) Extension reactions preformed with mesophilic polymerases were carried out by mixing all the components of the reaction except the enzyme and heating to 70° C. for 5 min. After the reactions had cooled to room temperature 0.175 units of the enzyme were added and the reactions heated to 37° C. for 20–40 minutes. The following enzymes were used: T7 DNA polymerase (T7); Sequenase 2™ (Seq); Klenow fragment of DNA polymerase 1 (Klen); phi-29 DNA polymerase (Phi-29); T4 DNA polymerase (T4) (all from AP Biotech) and Bst DNA polymerase (Bst) (Cambio Ltd).
as §5, §6, §7

Thermosequenase [2] = experiment: Thermostable polymerase under reverse transcription conditions, TS I; parameters: key to result of incorporation (termination / further chain extension): T: Incorporation results in termination; E: Incorporation permits further chain extension; T/E: Predominant product is primer extended by one base, but evidence of some further extension also observed; conditions: RNA template, 2.5 mM Manganese ions; for primer extended by at least one base within assay time (grade): Tth reaction buffer
Protocol: as §1, §2, §3, §4
(§9) Reverse transcriptase reactions were performed essentially as described above for thermophilic and mesophilic enzymes. The template for these reactions was the RNA equivalent of sequence 2. All the thermophilic enzymes were assayed in Tth reaction buffer (Cambio Ltd, Cambridge UK) containing 2.5 mM Manganese ions. The following enzymes were used: Thermosequenase (TS1); Thermosequenase II (TSII); delta Tts DNA polymerase (deltaTts); delta Tts D DNA polymerase (deltaTtsD) (all from APBiotech); Retrotherm reverse transcriptase (Retroth) (Cambio Ltd); Tth DNA polymerase (Tth) (Cambio Ltd.).
as §5, §6, §7

AMV RT = experiment: Mesophilic reverse transcriptase reaction, AMV RT; parameters: key: −: No extension within assay time; +/−: up to 25% of primer extended by at least one base within assay time; +: up to 50% of primer extended by at least one base within assay time; ++: up to 75% of primer extended by at least one base within assay time; +++: essentially all primer extended by at least one base within assay time; conditions: RNA template, final enzyme concentration of 4 units/μl
Protocol: as §1, §2, §3, §8
Reverse transcriptase reactions were performed essentially as described above for thermophilic and mesophilic enzymes. The template for these reactions was the RNA equivalent of sequence 2. […]
Gels were scanned for Cy3 fluorescence on a Molecular Dynamics Fluorimager and the data analysed using Molecular Dynamics ImageQuant 5 software. […]

HIV RT = target: T2, HIV RT (Human immunodeficiency virus type 1 group M subtype B, UniProt P03366); experiment: Mesophilic reverse transcriptase reaction, HIV RT; parameters: key to result of incorporation (termination / further chain extension): T: Incorporation results in termination; E: Incorporation permits further chain extension; T/E: Predominant product is primer extended by one base, but evidence of some further extension also observed; key to primer extended by at least one base within assay time (grade): −: No extension within assay time; +/−: up to 25% of primer extended by at least one base within assay time; +: up to 50% of primer extended by at least one base within assay time; ++: up to 75% of primer extended by at least one base within assay time; +++: essentially all primer extended by at least one base within assay time; conditions: RNA template, final enzyme concentration of 4 units/μl
T2 construct: AMV RT; MuLV RT; SAV RT and HIV RT all from APBiotech; purchased APBiotech
Protocol: as §1, §2, §3, §8, §9
(§10) Mesophilic reverse transcriptases (AMV RT; MuLV RT; SAV RT and HIV RT all from APBiotech) were assayed in their respective buffers with a final enzyme concentration of 4 units/μl.
as §5, §6, §7

a range of polymerases = experiment: DNA polymerase assays (summary); conditions: for further extension after incorporation: reverse transcriptase conditions; for result of incorporation / substrate for polymerases: summary of polymerase assays
Protocol: as §1, §2, §3, §4, §8, §9, §10, §5, §6, §7

T1 sequence (P03680 whole entry): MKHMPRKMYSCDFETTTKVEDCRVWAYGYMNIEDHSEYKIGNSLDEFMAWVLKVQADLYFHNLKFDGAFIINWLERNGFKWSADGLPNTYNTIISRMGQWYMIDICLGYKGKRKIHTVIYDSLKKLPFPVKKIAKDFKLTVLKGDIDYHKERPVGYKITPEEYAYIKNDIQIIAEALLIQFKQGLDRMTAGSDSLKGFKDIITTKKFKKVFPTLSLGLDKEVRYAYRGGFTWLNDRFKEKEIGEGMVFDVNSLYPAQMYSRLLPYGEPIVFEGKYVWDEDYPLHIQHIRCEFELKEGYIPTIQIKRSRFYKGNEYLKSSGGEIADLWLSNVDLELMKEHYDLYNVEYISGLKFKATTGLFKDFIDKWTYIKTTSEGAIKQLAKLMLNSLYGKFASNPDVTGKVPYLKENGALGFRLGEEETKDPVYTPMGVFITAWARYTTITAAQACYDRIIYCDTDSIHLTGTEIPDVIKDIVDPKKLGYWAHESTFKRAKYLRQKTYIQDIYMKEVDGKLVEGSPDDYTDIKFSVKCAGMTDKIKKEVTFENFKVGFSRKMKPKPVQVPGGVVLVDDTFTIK

Molecule	result of incorporation (termination / further chain extension) (Thermosequenase [1])	primer extended by at least one base within assay time (grade) (Thermosequenase [1])	result of incorporation (termination / further chain extension) (Vent™ DNA polymerase)	primer extended by at least one base within assay time (grade) (Vent™ DNA polymerase)	result of incorporation (termination / further chain extension) (phi-29 DNA polymerase)	primer extended by at least one base within assay time (grade) (phi-29 DNA polymerase)	result of incorporation (termination / further chain extension) (Thermosequenase [2])	primer extended by at least one base within assay time (grade) (Thermosequenase [2])	primer extended by at least one base within assay time (grade) (AMV RT)	primer extended by at least one base within assay time (grade) (HIV RT)	result of incorporation (termination / further chain extension) (HIV RT)	further extension after incorporation (a range of polymerases)	result of incorporation (a range of polymerases)	substrate for polymerases (a range of polymerases)
4′-C-(Aminomethyl)thymidine triphosphate [compound (9)]	T	+ (up to 50% of primer extended by at least one base within assay time)	T	+/− (up to 25% of primer extended by at least one base within assay time)	T	+/− (up to 25% of primer extended by at least one base within assay time)	T/E	+ (up to 50% of primer extended by at least one base within assay time)	−	+++	E	some extension was observed	termination	effective substrates
4′-C-(Glycylaminomethyl)thymidine triphosphate [compound (6)]	T	+ (up to 50% of primer extended by at least one base within assay time)	T	+/− (up to 25% of primer extended by at least one base within assay time)	T	+/− (up to 25% of primer extended by at least one base within assay time)	T/E	+ (up to 50% of primer extended by at least one base within assay time)	−	+++	E	some extension was observed	termination	effective substrates
Cc1cn([C@H]2C[C@H](O)[C@@](CNC(=O)C(F)(F)F)(COP(=O)(O)OP(=O)(O)OP(=O)(O)O)O2)c(=O)[nH]c1=O [compound (8), 4′-C-(N-trifluoroacetylaminomethyl)thymidine triphosphate]	T	+ (up to 50% of primer extended by at least one base within assay time)	T	+/− (up to 25% of primer extended by at least one base within assay time)	T	+/− (up to 25% of primer extended by at least one base within assay time)	T/E	+ (up to 50% of primer extended by at least one base within assay time)	−	+++	E	some extension was observed	termination	effective substrates
